The record followed here is patent US7064120B2, “Tricyclic pyridyl carboxamides and derivatives thereof tocolytic oxytocin receptor antagonists” (Wyeth, priority 2001, dated 2006).

SMILES strings stand for the structures.

The target in this assay is T1, human oxytocin receptor (Homo sapiens, UniProt P30559).
T1 construct: host or cells: CHO cells, stably transfected (pcDNA3.1 vector)
T1 sequence (P30559 1-389): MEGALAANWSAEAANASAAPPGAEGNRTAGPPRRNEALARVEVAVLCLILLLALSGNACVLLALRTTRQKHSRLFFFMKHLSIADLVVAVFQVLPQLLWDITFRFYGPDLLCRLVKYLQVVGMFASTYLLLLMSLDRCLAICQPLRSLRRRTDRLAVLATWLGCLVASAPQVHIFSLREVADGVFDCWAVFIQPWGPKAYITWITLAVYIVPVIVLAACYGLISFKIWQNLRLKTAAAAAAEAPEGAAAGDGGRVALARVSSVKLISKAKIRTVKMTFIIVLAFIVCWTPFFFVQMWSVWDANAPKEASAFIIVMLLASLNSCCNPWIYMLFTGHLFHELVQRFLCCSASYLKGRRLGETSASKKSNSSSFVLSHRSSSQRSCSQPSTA
The experiment in a line: Oxytocin binding in CHO cell membranes expressing human oxytocin receptors ([3H]oxytocin radioligand binding). To be noted: 100 nM, read-out: OT % inhibition @ 100 nM. How it is done: Oxytocin Binding in Chinese Hamster Ovary Cell Membranes Expressing Human Oxytocin Receptors
Cell Culture medium (e.g. 30 mL for 1:30 split) is immediately added and mixed well to inactivate trypsin. 1 mL of detached cells is added to new culture flasks containing fresh Cell Culture medium (e.g. into 25 mL per T-150 flask), and mixed gently. The cells are incubated at 37° C. in 5% CO2. The medium is changed at 3 to 4 days interval (or as appropriate). […] All steps are done under sterile conditions.
The cells are washed twice gently with Hank's Balanced Salt solution (e.g., use 10 mL per T-150 flask). […] The contents are transferred to centrifuge tubes (50 mL size) kept in ice bath. All subsequent steps are done at 4° C. The tubes are centrifuged at 300×g for 15 min (1380 rpm on SORVAL, Model RT6000D, using rotor for 50 mL tubes). The supernatant is discarded and the cells suspended in homogenizing buffer (10 mM Tris-HCl containing 0.25 M sucrose and 1 mM EDTA, pH 7.4) ensuring that the volume of the buffer is about ten times the volume of the cell pellet. The cells are pooled into a centrifuge tube (50 mL) and homogenized with a Polytron at setting 6 for 10 sec. The homogenate is transferred into a Potter-Elvjehm homogenizer and homogenized with 3 strokes. The homogenate is centrifuged at 1500×g for 10 min at 4° C. (3100 rpm using SORVAL, model RT6000D, using a rotor for 50 mL tubes). The pellet is discarded. The supernatant is centrifuged at 100,000×g for 60 min. at 4° C. (Beckman L8-80M ultracentrifuge; spin at 37,500 rpm with rotor type 70 Ti for 50 mL tubes; 38,000 rpm with rotor type 8OTi for 15 mL tubes; or 35,800 rpm with rotor type 45Ti). The supernantant is discarded and the pellet suspended in 3 to 4 mL of Tris buffer (50 mM TRIS-HCl, pH 7.4). The protein content is estimated by the Bradford or Lowry method. The volume of the membrane suspension is adjusted with the membrane buffer (50 mM Tris-HCl containing 0.1% BSA and 0.1 mM PMSF) to give 3.0 mg/mL (or as appropriate) of protein. The membranes are aliquoted and stored at −70° C.
In wells of a 96-well format microtiter plate, is added 90, 110 or 130 μL (to make up a final volume of 200 μL) of assay buffer containing 50 mM of Tris-HCl (pH 7.4), […], 1 mg % aprotinin, 1 mg % leupeptin, 2 mg % 1,10-phenanthroline, 10 mg % trypsin inhibitor, and 0.1 mM PMSF. The inhibitors are added on the day of the experiment. The components are mixed at room temperature, and then kept in ice bath following adjustment of the pH to 7.4. […] For oxytocin and other peptide ligands, 20 μL of 50% DMSO is added and the assay buffer volume is adjusted accordingly. To each well is added 50 μL of frozen membrane suspension thawed immediately prior to use and diluted in assay buffer to the required concentration (equivalent to 25 to 50 μg of protein/well as needed). 20 μL of 8 nM [^3H]oxytocin in the assay buffer, prepared just before use is added and incubated at room temperature for 60 min. shaking the plate on a mechanical shaker for the first 15 min. The incubation is stopped by rapid filtration of the plate contents followed by washing with ice-cold buffer (50 mM Tris-HCl, pH 7.4) using a cell harvester (Tomtek and Printed filtermat-B filter paper). The filter paper is thoroughly dried (7–12 min. in a microwave oven) and impregnated with MeltiLex B/H melt-on scintillation wax sheets and the radioactivity counted in a betaplate scintillation counter.
Binding data is either reported as percent inhibition at a certain concentration or if an IC50 was calculated, as a nanomolar concentration.
For `COc1cc(-c2ccccc2C)c(Cl)cc1C(=O)N1Cc2ccc(C(=O)NCc3cccnc3)n2Cc2ccccc21` [Example 42, 10-[(6-Chloro-3-methoxy-2′-methyl-[1,1′-biphenyl]-4-yl)carbonyl]-N-(3-pyridinylmethyl)-10,11-dihydro-5H-pyrrolo[2,1-c][1,4]benzodiazepine-3-carboxamide], the inhibition – broadly, the percentage by which the read-out fell short of the control – at 0.1 µM is 33%. To `COc1cccc(-c2cc(OC)c(C(=O)N3Cc4ccc(C(=O)NCc5cccnc5)n4Cc4ccccc43)cc2Cl)c1` [Example 43, 10-[(6-Chloro-3,3′-dimethoxy-[1,1′-biphenyl]-4-yl)carbonyl]-N-(3-pyridinylmethyl)-10,11-dihydro-5H-pyrrolo[2,1-c][1,4]benzodiazepine-3-carboxamide] belongs 18%; to `COc1cc(C(=O)N2Cc3ccc(C(=O)NCc4cccnc4)n3Cc3ccccc32)ccc1-c1cccc2ccccc12` [Example 44, 10-[3-Methoxy-4-(naphthalen-1-yl)benzoyl]-N-(3-pyridinylmethyl)-10,11-dihydro-5H-pyrrolo[2,1-c][1,4]benzodiazepine-3-carboxamide], 22%. To `COc1ccccc1-c1ccc(C(=O)N2Cc3ccc(C(=O)NCc4cccnc4)n3Cc3ccccc32)cc1OC` [Example 45, 10-[(2,2′-Dimethoxy-[1,1′-biphenyl]-4-yl)carbonyl]-N-(3-pyridinylmethyl)-10,11-dihydro-5H-pyrrolo[2,1-c][1,4]benzodiazepine-3-carboxamide] belongs 37%; to `COc1cccc(-c2ccc(C(=O)N3Cc4ccc(C(=O)NCc5cccnc5)n4Cc4ccccc43)cc2OC)c1` [Example 46, 10-[(2,3′-Dimethoxy-[1,1′-biphenyl]-4-yl)carbonyl]-N-(3-pyridinylmethyl)-10,11-dihydro-5H-pyrrolo[2,1-c][1,4]benzodiazepine-3-carboxamide], 31%. In the case of `O=C(NCc1cccnc1)c1ccc2n1Cc1ccccc1N(C(=O)c1ccc(-c3cccc4ccccc34)cc1Cl)C2` [Example 47, 10-[2-Chloro-4-(naphthalen-1-yl)benzoyl]-N-(3-pyridinylmethyl)-10,11-dihydro-5H-pyrrolo[2,1-c][1,4]benzodiazepine-3-carboxamide], the inhibition at 0.1 µM was found to be 1%. For `Cc1cc(C(=O)N2Cc3ccc(C(=O)NCc4cccnc4)n3Cc3ccccc32)ccc1-c1ccccc1C(F)(F)F` [Example 48, 10-{[2-Methyl-2′-trifluoromethyl-[1,1′-biphenyl]-4-yl]carbonyl}-N-(3-pyridinylmethyl)-10,11-dihydro-5H-pyrrolo[2,1-c][1,4]benzodiazepine-3-carboxamide], the inhibition at 0.1 µM came out at 15%. To `COc1ccccc1-c1ccc(C(=O)N2Cc3ccc(C(=O)NCCc4ccccn4)n3Cc3ccccc32)cc1C` [Example 49, 10-[(2′-Methoxy-2-methyl-[1,1′-biphenyl]-4-yl)carbonyl]-N-[2-(2-pyridinyl)ethyl]-10,11-dihydro-5H-pyrrolo[2,1-c][1,4]benzodiazepine-3-carboxamide] belongs 58%. With `Cc1ccccc1-c1ccc(C(=O)N2Cc3ccc(C(=O)NCCc4ccccn4)n3Cc3ccccc32)cc1C` [Example 50, 10-[(2,2′-Dimethyl-[1,1′-biphenyl]-4-yl)carbonyl]-N-[2-(2-pyridinyl)ethyl]-10,11-dihydro-5H-pyrrolo[2,1-c][1,4]benzodiazepine-3-carboxamide] the figure was 67%. To `COc1cccc(-c2ccc(C(=O)N3Cc4ccc(C(=O)NCCc5ccccn5)n4Cc4ccccc43)cc2C)c1` [Example 51, 10-[(3′-Methoxy-2-methyl-[1,1′-biphenyl]-4-yl)carbonyl]-N-[2-(2-pyridinyl)ethyl]-10,11-dihydro-5H-pyrrolo[2,1-c][1,4]benzodiazepine-3-carboxamide] belongs 31%. Regarding `COc1ccccc1-c1ccc(C(=O)N2Cc3ccc(C(=O)NCCc4ccccn4)n3Cc3ccccc32)cc1` [Example 52, 10-[(2′-Methoxy-[1,1′-biphenyl]-4-yl)carbonyl]-N-[2-(2-pyridinyl)ethyl]-10,11-dihydro-5H-pyrrolo[2,1-c][1,4]benzodiazepine-3-carboxamide], the inhibition at 0.1 µM came out at 51%. Regarding `Cc1ccccc1-c1ccc(C(=O)N2Cc3ccc(C(=O)NCCc4ccccn4)n3Cc3ccccc32)cc1` [Example 53, 10-[(2′-Methyl-[1,1′-biphenyl]-4-yl)carbonyl]-N-[2-(2-pyridinyl)ethyl]-10,11-dihydro-5H-pyrrolo[2,1-c][1,4]benzodiazepine-3-carboxamide], the inhibition at 0.1 µM was determined as 6%. To `COc1cc(C(=O)N2Cc3ccc(C(=O)NCCc4ccccn4)n3Cc3ccccc32)ccc1-c1ccccc1C` [Example 54, 10-[(2-Methoxy-2′-methyl-[1,1′-biphenyl]-4-yl)carbonyl]-N-[2-(2-pyridinyl)ethyl]-10,11-dihydro-5H-pyrrolo[2,1-c][1,4]benzodiazepine-3-carboxamide] belongs 55%; to `COc1cc(-c2ccccc2C)c(Cl)cc1C(=O)N1Cc2ccc(C(=O)NCCc3ccccn3)n2Cc2ccccc21` [Example 55, 10-[(6-Chloro-3-methoxy-2′-methyl-[1,1′-biphenyl]-4-yl)carbonyl]-N-[2-(2-pyridinyl)ethyl]-10,11-dihydro-5H-pyrrolo[2,1-c][1,4]benzodiazepine-3-carboxamide], 50%; to `COc1cccc(-c2cc(OC)c(C(=O)N3Cc4ccc(C(=O)NCCc5ccccn5)n4Cc4ccccc43)cc2Cl)c1` [Example 56, 10-[(6-Chloro-3,3′-dimethoxy-[1,1′-biphenyl]-4-yl)carbonyl]-N-[2-(2-pyridinyl)ethyl]-10,11-dihydro-5H-pyrrolo[2,1-c][1,4]benzodiazepine-3-carboxamide], 31%.

For `COc1cc(C(=O)N2Cc3ccc(C(=O)NCCc4ccccn4)n3Cc3ccccc32)ccc1-c1cccc2ccccc12` [Example 57, 10-[3-Methoxy-4-(naphthalen-1-yl)benzoyl]-N-[2-(2-pyridinyl)ethyl]-10,11-dihydro-5H-pyrrolo[2,1-c][1,4]benzodiazepine-3-carboxamide], the inhibition at 0.1 µM came out at 32%.

In the case of `COc1ccccc1-c1ccc(C(=O)N2Cc3ccc(C(=O)NCCc4ccccn4)n3Cc3ccccc32)cc1OC` [Example 58, 10-[(2,2′-Dimethoxy-[1,1′-biphenyl]-4-yl)carbonyl]-N-[2-(2-pyridinyl)ethyl]-10,11-dihydro-5H-pyrrolo[2,1-c][1,4]benzodiazepine-3-carboxamide], the inhibition at 0.1 µM turned out to be 37%.

For `COc1cccc(-c2ccc(C(=O)N3Cc4ccc(C(=O)NCCc5ccccn5)n4Cc4ccccc43)cc2OC)c1` [Example 59, 10-[(2,3′-Dimethoxy-[1,1′-biphenyl]-4-yl)carbonyl]-N-[2-(2-pyridinyl)ethyl]-10,11-dihydro-5H-pyrrolo[2,1-c][1,4]benzodiazepine-3-carboxamide], the inhibition at 0.1 µM stood at 40%.
